Test results published in patent publication US11912742B2, “Heterologous production of leupeptin protease inhibitors and analogs thereof” (YALE UNIVERSITY, priority 2020, dated 2024).
Where a SMILES comes first, the peptide text is derived from it.

Tests used:
[1] = Spontaneous conversion of pro-pyrazinones under aerobic conditions; assay type: physicochemical
Plu4509 = experiment: In vitro enzyme assay of purified Plu4509 with leupeptin as substrate; assay type: biochemical, P. luminescens; details: His6x-tagged Plu4509; end point analysis; 1 h, 35° C.
[2] = cited from earlier work
trypsin-like proteases = details: cited from earlier work
[3] = tested on: chymotrypsin-type proteases; details: previously synthesized molecules; cited from earlier work
calpain protease = details: cited from earlier work

| Compound | stability under aerobic conditions (conversion to pyrazinone) [1] | inhibition of chymotrypsin-type proteases [3] | also measured |
| --- | --- | --- | --- |
| CC(C)C[C@@H]1N[C@@H]2N=C(N)N3CCC[C@@]23NC1=O [compound 9] | spontaneously converted to their pyrazinone counterpart 11 |  |  |
| CC(C)C[C@@H]1N[C@@H]2N=C(N)N3CCC[C@]23NC1=O [compound 10] | spontaneously converted to their pyrazinone counterpart 11 |  |  |
| CC(=O)N[C@@H](CC(C)C)C(=O)N[C@@H](CC(C)C)C(=O)N[C@H](C=O)CCCNC(=N)N [leupeptin A, N-Acetyl-L-leucyl-L-leucyl-L-argininal] |  |  | cleavage by Plu4509: production of metabolites 10 and 11 from the substrate (Plu4509): significantly enhanced production of 10 and 11; toxicity in humans [2]: very low toxicity; inhibition of trypsin-like proteases (trypsin-like proteases): inhibits trypsin-like proteases |
| CC(=O)N[C@@H](CC(C)C)C(=O)N[C@@H](CC(C)C)C(=O)N[C@H](C=O)Cc1ccc(O)cc1 [leupeptin B] (Ac-Leu-Leu-Tyr-aldehyde) |  | confirmed to inhibit chymotrypsin-type proteases |  |
| CC(=O)NC(CC(C)C)C(=O)NC(CC(C)C)C(=O)NC(C=O)Cc1ccccc1 (stereo not drawn) [leupeptin C] (Ac-Leu-Leu-Phe-aldehyde; configuration not given here) |  | confirmed to inhibit chymotrypsin-type proteases |  |
| CC(C)Cc1ncc(Cc2ccc(O)cc2)[nH]c1=O [lumizinone A] |  |  | calpain protease inhibition (calpain protease): calpain protease inhibitor |
